This data set in a line: LNP average particle size and polydispersity by dynamic light scattering. It is filed as physicochemical. To be noted: sgRNA:mRNA 1:2. As to the method:
Dynamic Light Scattering (“DLS”) is used to characterize the polydispersity index (“pdi” or “PDI”) and size of the LNPs of the present disclosure. DLS measures the scattering of light that results from subjecting a sample to a light source. PDI, as determined from DLS measurements, represents the distribution of particle size (around the mean particle size) in a population, with a perfectly uniform population having a PDI of zero.
LNP compositions are analyzed for average particle size, polydispersity index (pdi), total RNA content, encapsulation efficiency of RNA, and zeta potential. LNP compositions may be further characterized by lipid analysis, AF4-MALS, NTA, and/or cryo-EM.
Average particle size and polydispersity are measured by dynamic light scattering (DLS) using a Malvern Zetasizer DLS instrument. LNP samples were diluted with PBS buffer prior to being measured by DLS. Z-average diameter (“Z-avg”) which is an intensity-based measurement of average particle size was reported along with number average diameter (“number mean”) and PDI. A Malvern Zetasizer instrument is also used to measure the zeta potential of the LNP. Samples are diluted 1:17 (50 μL into 800 μL) in 0.1×PBS, pH 7.4 prior to measurement.
In vivo editing efficiency for materials delivered with formulations including various amine lipid (or ionizable lipid) compounds in Experiments 1 through 14 as described in Tables 3 and 4 was assessed. Editing was measured using G000534 (SEQ ID NO: 5) which targets the rat TTR gene. Lipids described above were assessed for efficacy through in vivo editing experiments. LNPs were formulated at a 1:2 w/w ratio of sgRNA (SEQ ID NO: 5) and Cas9 mRNA (SEQ ID NO: 3). In Experiments 1 through 13, lipid components of the LNP are formulated in a molar ratio of 50% ionizable lipid, 38% cholesterol, 9% DSPC, and 3% PEG2K-DMG. In Experiment 14, lipid components of the LNP are formulated in a molar ratio of 50% ionizable lipid, 38% cholesterol, 9% DSPC, and 3% C13 Ether. The final LNPs used in different in vivo editing experiments were characterized to determine the encapsulation efficiency (% E), polydispersity index (PDI), and average particle size (Z-avg and number mean) according to the analytical methods provided above. The pKa values of each of the following ionizable lipids were also measured to be in the range of about 5.8 to about 7.6.
In vivo editing efficiency for materials delivered with formulations including various combinations of amine lipid (or ionizable lipid) and PEG lipid compounds was assessed as described in Tables 5 and 6. Editing was measured using G000534 (SEQ ID NO: 5) which targets the rat TTR gene. Lipids described above were assessed for efficacy through in vivo editing experiments. LNPs were formulated at a 1:2 w/w ratio of sgRNA (SEQ ID NO: 5) and Cas9 mRNA (SEQ ID NO:3). Lipid components of the LNP are formulated in a molar ratio of 50% ionizable lipid, 38% cholesterol, 9% DSPC, and 3% of various PEG lipids (e.g., PEG2K-DMG, C13 Ether, C14 Ether). The final LNPs used in different in vivo editing experiments were characterized to determine the encapsulation efficiency (% E), polydispersity index (PDI), and average particle size (Z-avg and number mean) according to the analytical methods provided above. The pKa values of each of the following ionizable lipids were also measured to be in the range of about 5.8 to about 7.6.
In vivo editing efficiency for materials delivered with formulations including various amine lipid (or ionizable lipid) compounds as described in Tables 7 and 8 was assessed. Editing was measured using G000534 (SEQ ID NO: 5) which targets the rat TTR gene. Lipids described above were assessed for efficacy through in vivo editing experiments. LNPs were formulated at a 1:2 w/w ratio of sgRNA (SEQ ID NO: 5) and Cas9 mRNA (SEQ ID NO: 3). Lipid components of the LNP were formulated in a molar ratio of 50% ionizable lipid, 38% cholesterol, 9% DSPC, and 3% C13 Ether. […]

The mark [1] stands for this setting: Table 3, Experiments 1-13, LNP 50% ionizable lipid, 38% cholesterol, 9% DSPC, 3% PEG2K-DMG.
The mark [2] stands for this setting: Table 3, Experiment 14, LNP with 3% C13 Ether.
Setting [3] is: LNP with 50% ionizable lipid, 38% cholesterol, 9% DSPC, 3% C13 Ether (LNP #1, Compound 53: 3% PEG2K-DMG instead).

Each structure is given as a SMILES string. Where “and” joins values, the source holds several entries; their conditions need not be identical. Equal entries are not always repeated.

`CCCCCCCCOC(CCC(=O)OCC(COC(=O)CCC(OCCCCCCCC)OCCCCCCCC)COC(=O)OCCCN(CC)CC)OCCCCCCCC` [Compound 1, 2-((((3-(diethylamino)propoxy)carbonyl)oxy)methyl)propane-1,3-diyl bis(4,4-bis(octyloxy)butanoate)]: under setting [1], the Number mean was found to be 70 nm, the PDI is listed as 0.06 and the Z-avg was found to be 80 nm.

Take `CCCCCCCCC(CCCCCCCC)OC(=O)CCCC(=O)OCC(COC(=O)CCCC(=O)OC(CCCCCCCC)CCCCCCCC)COC(=O)OCCCN(CC)CC` [Compound 2, O,O′-(2-((((3-(diethylamino)propoxy)carbonyl)oxy)methyl)propane-1,3-diyl) di(heptadecan-9-yl) diglutarate]: under setting [2], the Number mean amounted to 74 nm, the PDI is reported as 0.017 and the Z-avg is on record as 80 nm. Also, under setting [1], the Number mean is 65 nm and 72 nm; the PDI was determined as 0.01; the Z-avg was 79 nm and 76 nm.

For `CCCCCCCCC(CCCCCCCC)OC(=O)CCCCCC(=O)OCC(COC(=O)CCCCCC(=O)OC(CCCCCCCC)CCCCCCCC)COC(=O)OCCCN(CC)CC` [Compound 3, O′1,O1-(2-((((3-(diethylamino)propoxy)carbonyl)oxy)methyl)propane-1,3-diyl) 7,7′-di(heptadecan-9-yl) di(heptanedioate)], under setting [1], the Number mean is listed as 72 nm, the PDI amounted to 0.004 and the Z-avg is reported as 86 nm.

Consider `CCCCC/C=C\C/C=C\CCCCCCCC(=O)OCC(COC(=O)CCCCCC(=O)OCC(CCCC)CCCCCC)COC(=O)OCCCN(CC)CC` (stereo not drawn) [Compound 4, 1-(2-butyloctyl) 7-(3-(((3-(diethylamino)propoxy)carbonyl)oxy)-2-((((9Z,12Z)-octadeca-9,12-dienoyl)oxy)methyl)propyl) heptanedioate], for which, under setting [1], the Number mean was 78 nm and 83 nm; the PDI was 0.02 and 0.04; the Z-avg is 95 nm and 91 nm.

With `CCCCCCC(CCCC)COC(=O)CCCCCC(=O)OCC(COC(=O)CCCCCC(=O)OCC(CCCC)CCCCCC)COC(=O)OCCCN(CC)CC` (stereo not drawn) [Compound 5, 7,7′-bis(2-butyloctyl) O′1,O1-(2-((((3-(diethylamino)propoxy)carbonyl)oxy)methyl)propane-1,3-diyl) di(heptanedioate)], under setting [1], the Number mean stood at 90 nm, the PDI was 0.01 and the Z-avg stood at 109 nm.

Turning to `CCCCCCCCC(CCCCCCCC)OC(=O)CCCC(=O)OCC(COC(=O)CCCC(=O)OC(CCCCCCCC)CCCCCCCC)COC(=O)NCCN(CC)CC` [Compound 6, O,O′-(2-((((2-(diethylamino)ethyl)carbamoyl)oxy)methyl)propane-1,3-diyl) di(heptadecan-9-yl) diglutarate], the “Number mean (average particle size)” value under setting [3] is listed as 67 nm. In addition, the “PDI (polydispersity index)” value under setting [3] turned out to be 0.002. Further, under setting [3], the “Z-avg (average particle size)” value is 81 nm. Besides, the Number mean under setting [2] worked out at 68 nm; the Number mean under setting [1] was 68 nm and 75 nm; the Number mean (Table 5, PEG lipid C13 Ether) is reported as 72 nm; the Number mean (Table 5, PEG lipid C14 Ether) was 81 nm; the Number mean (Table 5, PEG lipid PEG2K-DMG) was found to be 69 nm; the Number mean (Table 7, LNP with 3% C13 Ether) worked out at 71 nm. Further, the PDI is, setting by setting: under setting [2], 0.02; under setting [1], 0.014 and 0.02; (Table 5, PEG lipid C13 Ether) 0.01; (Table 5, PEG lipid C14 Ether) 0.01; (Table 5, PEG lipid PEG2K-DMG) 0.04; (Table 7, LNP with 3% C13 Ether) 0.01. The Z-avg was 73 nm under setting [2]; 75 nm and 79 nm under setting [1]; 79 nm (Table 5, PEG lipid C13 Ether); 86 nm (Table 5, PEG lipid C14 Ether); 78 nm (Table 5, PEG lipid PEG2K-DMG); 78 nm (Table 7, LNP with 3% C13 Ether).

On to `CCCCC/C=C\C/C=C\CCCCCCCC(=O)OCC(CCCCCCCCC(=O)OCC(CCCC)CCCCCC)COC(=O)OCCCN(CC)CC` (stereo not drawn) [Compound 7, 11-((2-butyloctyl)oxy)-2-((((3-(diethylamino)propoxy)carbonyl)oxy)methyl)-11-oxoundecyl (9Z,12Z)-octadeca-9,12-dienoate], for which, under setting [1], the Number mean turned out to be 68 nm, the PDI came to 0.03 and the Z-avg is recorded as 74 nm.

As to `CCCCCCCCC(CCCCCCCC)OC(=O)CCCCCCC(COC(=O)CCCC(=O)OC(CCCCCCCC)CCCCCCCC)COC(=O)OCCCN(CC)CC` (stereo not drawn) [Compound 8, 2-((((3-(diethylamino)propoxy)carbonyl)oxy)methyl)-9-(heptadecan-9-yloxy)-9-oxononyl heptadecan-9-yl glutarate], under setting [1], the Number mean was determined as 64 nm, the PDI is recorded as 0.03 and the Z-avg amounted to 69 nm.

As for `CCCCC/C=C\C/C=C\CCCCCCCC(=O)OCC(CCCCCCCCC(=O)OC(CCCCCCCC)CCCCCCCC)COC(=O)OCCCN(CC)CC` (stereo not drawn) [Compound 9, 2-((((3-(diethylamino)propoxy)carbonyl)oxy)methyl)-11-(heptadecan-9-yloxy)-11-oxoundecyl (9Z,12Z)-octadeca-9,12-dienoate], under setting [1], the Number mean is 61 nm and 65 nm and 62 nm; the PDI is on record as 0.03; the Z-avg is 68 nm and 73 nm.

With `CCCCC/C=C\C/C=C\CCCCCCCC(=O)OCC(CCCCCCCCC(=O)OC(CCCCCCCC)CCCCCCCC)COC(=O)NCCN(CC)CC` (stereo not drawn) [Compound 10, 2-((((2-(diethylamino)ethyl)carbamoyl)oxy)methyl)-11-(heptadecan-9-yloxy)-11-oxoundecyl (9Z,12Z)-octadeca-9,12-dienoate], under setting [1], the Number mean is given as 83 nm, the PDI turned out to be 0.04 and the Z-avg is given as 90 nm.

For `CCCCC/C=C\C/C=C\CCCCCCCC(=O)OCC(CCCCCCCCC(=O)OC(CCCCCCCC)CCCCCCCC)COC(=O)OCCCN(C)CC` (stereo not drawn) [Compound 11, 2-((((3-(ethyl(methyl)amino)propoxy)carbonyl)oxy)methyl)-11-(heptadecan-9-yloxy)-11-oxoundecyl (9Z,12Z)-octadeca-9,12-dienoate], under setting [1], the Number mean is 70 nm, the PDI came out at 0.02 and the Z-avg was 78 nm.

Regarding `CCCCC/C=C\C/C=C\CCCCCCCC(=O)OCC(CCCCC(=O)OC(CCCC)CCCC)COC(=O)NCCN(CC)CC` (stereo not drawn) [Compound 12, 2-((((2-(diethylamino)ethyl)carbamoyl)oxy)methyl)-7-(nonan-5-yloxy)-7-oxoheptyl (9Z,12Z)-octadeca-9,12-dienoate], under setting [1], the Number mean was 101 nm, the PDI is given as 0.03 and the Z-avg stood at 108 nm.

Turning to `CCCCC/C=C\C/C=C\CCCCCCCC(=O)OCC(CCCCC(=O)OC(CCCC)CCCC)COC(=O)OCCCN(C)CC` (stereo not drawn) [Compound 13, 2-((((3-(ethyl(methyl)amino)propoxy)carbonyl)oxy)methyl)-7-(nonan-5-yloxy)-7-oxoheptyl (9Z,12Z)-octadeca-9,12-dienoate], under setting [1], the Number mean was determined as 87 nm, the PDI was determined as 0.04 and the Z-avg was 99 nm.

The values above are taken from patent publication US20260337153A1, “IONIZABLE AMINE LIPIDS” (Intellia Therapeutics, Inc., priority 2023, published 2026).
